14 molecules from PubChem BioAssay (NCI) can be followed below.

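In this assay, cells in 96-well plates receive the compound at five concentrations for 48 hours. Endpoints are linearly interpolated between the surrounding concentrations. TGI: concentration producing complete growth inhibition.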

What all share (assay): NCI anticancer screen, dose series, 48 h
Assay [1] relates to EKVX NSCLC.
For assay [2], the system named is HCC-2998 colon.
The subject of assay [3] is HCT-116 colon.
Assay [4] deals with HOP-62 NSCLC.
Assay [5] deals with LOX IMVI melanoma.
Assay [6] has as its system M14 melanoma.
The subject of assay [7] is NCI-H23 lung.
Assay [8] has as its system NCI-H522 lung.
Assay [9] deals with OVCAR-3 ovarian.
In assay [10] the test system is OVCAR-4 ovarian.
Assay [11] has as its system RPMI-8226 leukemia.
Assay [12] has as its system SNB-75 CNS.
The test system of assay [13] is SR leukemia.
Assay [14] has as its system TK-10 renal.
Assay [15] relates to U251 CNS.
Assay [16] deals with SK-OV-3 ovarian.
In assay [17] the test system is HOP-92 NSCLC.
Assay [18] deals with RXF 393 renal.

As to `COc1cccc(/C=C2\C(=O)N(C(=O)Cc3ccccc3)N=C2C)c1`, the TGI in [1], in assay [2], in assay [3], in assay [4], in [5] and in assay [6] was greater than 100 µM throughout. The TGI in assay [7], in assay [8], in [9], in [10], in [11] and in assay [12] was greater than 100 µM in each case. Besides, the TGI in assay [13], in [14] and in assay [15] was greater than 100 µM each time.

Take `C/C(CN1C(=O)c2ccccc2C1=O)=N\NS(=O)(=O)c1ccc(F)cc1`: the TGI in [1], in [2], in assay [3], in assay [4], in assay [5] and in assay [6] was greater than 100 µM each time. For the same molecule, the TGI in [7], in [8], in assay [9], in assay [10], in assay [11] and in [16] was greater than 100 µM throughout. Further, the TGI in assay [12], in assay [13], in assay [14] and in [15] was greater than 100 µM throughout.

Consider `CCOC(=O)c1cn2c([nH]c3ccccc32)c(C#N)c1=O`, for which the TGI in assay [1] is greater than 100 µM; in assay [2], greater than 100 µM; in assay [3], greater than 100 µM; in [4], greater than 100 µM; in [17], greater than 100 µM; in assay [5], 56.8 µM. Moreover, the TGI in [6], in assay [7], in assay [8], in assay [9], in [10] and in assay [18] was greater than 100 µM each time. Moreover, the TGI in assay [16], in assay [12], in [13], in [14] and in assay [15] was greater than 100 µM throughout.

Consider `COC(=O)c1cc(C)n(NC(=O)OC(C)(C)C)c1C`, for which the TGI in [1], in assay [2], in assay [3], in [4], in assay [5] and in [6] was greater than 100 µM each time. The TGI in assay [7], in [8], in [9], in assay [11], in [18] and in [16] was greater than 100 µM in each case. Further, the TGI in assay [12], in assay [14] and in assay [15] was greater than 100 µM each time.

`COc1ccc(C2S/C(=C\c3cccc(O)c3)C(=O)N2NC(=O)Cc2ccccc2)cc1` (configuration not stated): the TGI in assay [3], in assay [4], in assay [17], in [5], in assay [6] and in assay [7] was greater than 100 µM throughout. Also, the TGI in assay [8], in assay [10], in assay [11], in [18], in assay [16] and in [12] was greater than 100 µM in each case. For the same molecule, the TGI in assay [13], in assay [14] and in [15] was greater than 100 µM in each case.

Consider `COc1cc(C2C(Cl)C(=O)N2NC(=O)Cc2ccccc2)ccc1O` (configuration not stated), for which the TGI in assay [1], in [2], in assay [3], in [4], in assay [5] and in assay [6] was greater than 100 µM throughout. The TGI in [7] was greater than 100 µM; in assay [8], 56.3 µM; in [9] it was greater than 100 µM; in assay [10], greater than 100 µM; in assay [11], greater than 100 µM; in assay [18], greater than 100 µM. Further, the TGI is greater than 100 µM in [16]; greater than 100 µM in assay [12]; 83.4 µM in assay [13]; greater than 100 µM in [14]; greater than 100 µM in assay [15].

Consider `O=S(Cc1cc2c(cc1Br)OCO2)c1ccccc1` (configuration not stated), for which the TGI in assay [1] was greater than 100 µM; in assay [2], greater than 100 µM; in [3], greater than 100 µM; in assay [4], greater than 100 µM; in assay [17], greater than 100 µM; in [5] it was 30.7 µM. Moreover, the TGI in assay [6] is greater than 100 µM; in [7], greater than 100 µM; in [8], 56.3 µM; in assay [9] it was greater than 100 µM; in assay [10], greater than 100 µM; in assay [11] it was 59.4 µM. In addition, the TGI in [18], in [16], in assay [12], in [14] and in assay [15] was greater than 100 µM throughout.

Take `NC1=NS(=O)(=O)Nc2nc(-c3cccs3)[nH]c21`: the TGI in assay [2], in assay [3], in assay [4], in [17], in [5] and in assay [6] was greater than 100 µM each time. Moreover, the TGI in [7], in assay [8], in assay [9], in assay [10], in [11] and in [18] was greater than 100 µM each time. Besides, the TGI in [16], in assay [12], in [13], in assay [14] and in assay [15] was greater than 100 µM in each case.

With `CCCOCN1COCN=C1NC#N`, the TGI is greater than 100 µM in [1]; greater than 100 µM in [2]; greater than 100 µM in assay [3]; greater than 100 µM in [4]; greater than 100 µM in [17]; 47.5 µM in assay [5]. Also, the TGI in assay [6], in [7], in assay [8], in assay [9], in assay [10] and in assay [11] was greater than 100 µM each time. Further, the TGI was 29.8 µM in assay [18]; greater than 100 µM in [16]; greater than 100 µM in assay [12]; greater than 100 µM in assay [14]; 43.8 µM in assay [15].

Regarding `O=C(Nc1cc(Cl)c(Cl)cc1Cl)C(=O)C(C(=O)c1ccc2ccccc2c1)C1OC(=O)c2ccccc21` (configuration not stated), the TGI in [1] worked out at 36.6 µM; in assay [3], 34.6 µM; in [4], 43.5 µM; in assay [17], 7.96 µM; in assay [5], 39.8 µM; in assay [6], 50.7 µM. In addition, the TGI in assay [7] is 15.2 µM; in [8], 26.9 µM; in assay [9], 59.5 µM; in [11], greater than 100 µM; in [18], 15.1 µM; in assay [16], greater than 100 µM. Further, the TGI in assay [13] was greater than 100 µM; in assay [15], 17 µM.

With `CCCCCC(=O)Cc1cc(OC)cc2c1C(=O)Oc1cc(O)c(C(=O)O)c(CC(=O)CCCCC)c1O2`, the TGI in assay [1] was greater than 100 µM; in [2] it was greater than 100 µM; in assay [3], 71.2 µM; in assay [4], greater than 100 µM; in [5], greater than 100 µM; in assay [6] it was greater than 100 µM. The TGI in [7] is 37.1 µM; in [8], greater than 100 µM; in [9], 43.8 µM; in [11], greater than 100 µM; in assay [16], greater than 100 µM; in [12], greater than 100 µM. The figures for the TGI in assay [13], in assay [14] and in [15] were greater than 100 µM, greater than 100 µM and 29.3 µM, respectively.

As for `Cn1c(N)c(-c2c3ccccc3nc3ccccc23)c(=O)n(C)c1=O`, the TGI in [1], in assay [3], in assay [17], in assay [6], in assay [7] and in assay [8] was greater than 100 µM throughout. Moreover, the TGI in assay [9], in assay [10], in assay [11], in assay [18], in assay [16] and in [14] was greater than 100 µM each time. In [15], this molecule registered a TGI greater than 100 µM.

As for `C1=c2ccccc2=C2C(=C(c3ccccc3)C(c3ccccc3)=NN2c2ccccc2)S1`, the TGI in assay [1], in [2], in assay [3], in assay [4], in assay [17] and in assay [5] was greater than 100 µM in each case. Further, the TGI in [6], in [7], in assay [8], in assay [10], in [11] and in [18] was greater than 100 µM each time. Besides, the TGI in [16], in assay [12], in assay [14] and in assay [15] was greater than 100 µM each time.

As to `C[N+](C)(Cc1ccc(NC(=O)CCCC(=O)ON2C(=O)CCC2=O)cc1)c1ccccc1`, the TGI in assay [3] is 18.2 µM; in [17], less than 0.01 µM; in [5], greater than 100 µM; in assay [6], greater than 100 µM; in assay [7], greater than 100 µM; in assay [8], greater than 100 µM. In addition, the TGI in [9] is greater than 100 µM; in assay [10] it was 2.29 µM; in assay [16] it was greater than 100 µM; in assay [12] it was 2.42 µM; in [13] it was less than 0.01 µM; in [14], greater than 100 µM. Further, in assay [15], the TGI was greater than 100 µM.
